In ChEMBL document CHEMBL1201862, “PubChem BioAssay data set” (2004):
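Interpolation was linear, between the two tested concentrations surrounding the appropriate level; five concentrations were tested over 48 hours in 96-well plates. Abbreviation: GI50, concentration required for 50% inhibition of growth.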 Active and inactive are the calls of the source. No stated cut-off is given here; in the data, active = GI50 up to about 1.1 µM and inactive = higher.

How the values were obtained:
Experiment in all cases: growth of human tumour cells (NCI), 48 h
MOLT-4 = system: MOLT-4
SK-MEL-28 = system: SK-MEL-28
HCC 2998 = system: HCC 2998
OVCAR-4 = system: OVCAR-4
SN12C = system: SN12C
NCI-H522 = system: NCI-H522
EKVX = system: EKVX
ACHN = system: ACHN
Malme-3M = system: Malme-3M
U-251 = system: U-251
SW-620 = system: SW-620
T47D = system: T47D
UACC-257 = system: UACC-257
HT-29 = system: HT-29
HOP-92 = system: HOP-92
HL-60 = system: HL-60
HCT-116 = system: HCT-116
RXF 393 = system: RXF 393
A549 = system: A549
LOX IMVI = system: LOX IMVI

| SMILES | GI50 (MOLT-4) | GI50 (SK-MEL-28) | GI50 (HCC 2998) | GI50 (OVCAR-4) | GI50 (SN12C) | GI50 (NCI-H522) | GI50 (EKVX) | GI50 (ACHN) | GI50 (Malme-3M) | GI50 (U-251) | GI50 (SW-620) | GI50 (T47D) | GI50 (UACC-257) | GI50 (HT-29) | GI50 (HOP-92) | GI50 (HL-60) | GI50 (HCT-116) | GI50 (RXF 393) | GI50 (A549) | GI50 (LOX IMVI) |
| --- | --- | --- | --- | --- | --- | --- | --- | --- | --- | --- | --- | --- | --- | --- | --- | --- | --- | --- | --- | --- |
| COc1ccc(N2C(=O)/C(=C/c3ccc(N(CCC#N)CCC#N)cc3)N=C2c2ccccc2)c(OC)c1 | 28.2 µM (inactive) | > 100 µM (inactive) | > 100 µM (inactive) | > 100 µM (inactive) | > 100 µM (inactive) | 22 µM (inactive) | > 100 µM (inactive) | > 100 µM (inactive) | > 100 µM (inactive) | 48.2 µM (inactive) | > 100 µM (inactive) | 27.1 µM (inactive) | > 100 µM (inactive) | > 100 µM (inactive) | 31.1 µM (inactive) | 30.3 µM (inactive) | 69.2 µM (inactive) |  |  |  |
| CCCCC(C(=O)N/N=C/c1ccc([N+](=O)[O-])o1)C(=O)N/N=C/c1ccc([N+](=O)[O-])o1 | 2.09 µM (inactive) | 3.96 µM (inactive) |  | 1.74 µM (inactive) | 3.66 µM (inactive) |  | 13.4 µM (inactive) | 1.82 µM (inactive) | 2.2 µM (inactive) | 2.74 µM (inactive) | 2.54 µM (inactive) | 3.46 µM (inactive) |  | 2.14 µM (inactive) | 1.52 µM (inactive) | 2.52 µM (inactive) | 1.36 µM (inactive) | 2.07 µM (inactive) | 17.7 µM (inactive) | 1.84 µM (inactive) |
| COc1cc(S(=O)(=O)Nc2ccc(-c3csc(/N=C\c4ccccc4)n3)cc2)ccc1Cl | 12.7 µM (inactive) | 33.7 µM (inactive) |  | 79.4 µM (inactive) | > 100 µM (inactive) | 29.9 µM (inactive) | 30.3 µM (inactive) | > 100 µM (inactive) | > 100 µM (inactive) |  | 33.5 µM (inactive) | 35.9 µM (inactive) |  | 44.2 µM (inactive) | > 100 µM (inactive) | 25.6 µM (inactive) | 44.8 µM (inactive) | 1.44 µM (inactive) | > 100 µM (inactive) | 43.9 µM (inactive) |
| C#CCn1c(=O)ccn(/C(=C/C(=O)OCC)C(=O)OCC)c1=O | 3.43 µM (inactive) | 7.41 µM (inactive) |  | 4.62 µM (inactive) | 9.08 µM (inactive) |  | 5.62 µM (inactive) | 1.59 µM (inactive) | 1.96 µM (inactive) | 14.2 µM (inactive) | 1.86 µM (inactive) | 2.67 µM (inactive) | 15 µM (inactive) | 2.17 µM (inactive) | 2.38 µM (inactive) | 3.44 µM (inactive) | 6.15 µM (inactive) | 1.36 µM (inactive) | 17.2 µM (inactive) | 13.9 µM (inactive) |
| O=C(Cn1c(=O)oc2ccc(C(=O)c3cccc(Cl)c3)cc21)c1ccccc1 | 49.4 µM (inactive) | > 100 µM (inactive) | 20.1 µM (inactive) | 12.8 µM (inactive) | > 100 µM (inactive) | > 100 µM (inactive) | 30.1 µM (inactive) | > 100 µM (inactive) | 63 µM (inactive) | > 100 µM (inactive) | 65.6 µM (inactive) | 4.53 µM (inactive) | 19.5 µM (inactive) | 29.9 µM (inactive) | 7.14 µM (inactive) | 19.3 µM (inactive) | > 10 µM (inactive) |  | 27.2 µM (inactive) | > 100 µM (inactive) |
| CCOC(=O)C1C(c2ccc(OC)cc2)c2c(n[nH]c2O)CC1(C)O (configuration not stated) | > 100 µM (inactive) | > 100 µM (inactive) | > 100 µM (inactive) | > 100 µM (inactive) | > 100 µM (inactive) | > 100 µM (inactive) | > 100 µM (inactive) | > 100 µM (inactive) | > 100 µM (inactive) | > 100 µM (inactive) | > 100 µM (inactive) | > 100 µM (inactive) | > 100 µM (inactive) | > 100 µM (inactive) | > 100 µM (inactive) | > 100 µM (inactive) | > 100 µM (inactive) |  | > 100 µM (inactive) | > 100 µM (inactive) |
| COC(=O)C(Cc1ccccc1)NP(=O)(O)OCC1OC(n2cc(F)c(=O)[nH]c2=O)CC1O (configuration not stated) | 4.78 µM (inactive) | > 67 µM (inactive) | 2.39 µM (inactive) | > 100 µM (inactive) | 10.4 µM (inactive) | > 100 µM (inactive) | > 100 µM (inactive) | 1.44 µM (inactive) | > 100 µM (inactive) | 8.99 µM (inactive) | > 100 µM (inactive) | 12.6 µM (inactive) | > 56 µM (inactive) | 11.2 µM (inactive) |  | 10.5 µM (inactive) | 5.53 µM (inactive) | > 100 µM (inactive) | 0.955 µM (active) | 3.21 µM (inactive) |
| CC(=O)OCC(C)(COC(C)=O)N1C(=O)C2C3c4ccccc4C(c4ccccc43)C2C1=O (configuration not stated) | > 100 µM (inactive) |  |  |  |  |  | > 100 µM (inactive) | > 100 µM (inactive) |  | > 100 µM (inactive) | > 100 µM (inactive) | > 100 µM (inactive) | > 100 µM (inactive) | > 100 µM (inactive) | > 100 µM (inactive) | > 100 µM (inactive) | 33 µM (inactive) | 35.6 µM (inactive) | > 100 µM (inactive) | > 100 µM (inactive) |
| NS(=O)(=O)c1ccc(/N=N/c2cccnc2O)cc1 | > 100 µM (inactive) | > 100 µM (inactive) |  | > 100 µM (inactive) | > 100 µM (inactive) | > 100 µM (inactive) | > 100 µM (inactive) | > 100 µM (inactive) | > 100 µM (inactive) | > 100 µM (inactive) | > 100 µM (inactive) | > 100 µM (inactive) | > 100 µM (inactive) | > 100 µM (inactive) | > 100 µM (inactive) | > 100 µM (inactive) | > 100 µM (inactive) | > 100 µM (inactive) | > 100 µM (inactive) | > 100 µM (inactive) |
| C=C(C)C1CC=C(C)C(=O)C1 (configuration not stated) [CARVONE] | > 100 µM (inactive) | > 100 µM (inactive) | > 100 µM (inactive) | > 100 µM (inactive) | > 100 µM (inactive) | > 100 µM (inactive) | > 100 µM (inactive) | > 100 µM (inactive) | > 100 µM (inactive) | > 100 µM (inactive) | > 100 µM (inactive) | > 100 µM (inactive) | > 100 µM (inactive) | > 100 µM (inactive) | > 100 µM (inactive) | > 100 µM (inactive) | > 100 µM (inactive) |  | > 100 µM (inactive) | > 100 µM (inactive) |
| Clc1cc(-c2ccccc2)nc(Nc2nc3ccccc3[nH]2)n1 | 22.3 µM (inactive) |  |  | 15.9 µM (inactive) | 28.2 µM (inactive) | 11.4 µM (inactive) | 24 µM (inactive) | 17.5 µM (inactive) | 28.2 µM (inactive) | 15.3 µM (inactive) | 6.01 µM (inactive) | > 100 µM (inactive) | 20.6 µM (inactive) | 15 µM (inactive) | 2.2 µM (inactive) | 0.832 µM (active) | 25.1 µM (inactive) | 4.27 µM (inactive) | > 100 µM (inactive) |  |
| S=C(Nc1cc(Cl)c(Cl)cc1Cl)SCc1ccccc1 | 22.8 µM (inactive) | 28.6 µM (inactive) |  | 22.2 µM (inactive) | > 100 µM (inactive) | 24.3 µM (inactive) | 40.7 µM (inactive) | 20.5 µM (inactive) | 28.2 µM (inactive) | 22.2 µM (inactive) | 35.2 µM (inactive) | 32.3 µM (inactive) | 19 µM (inactive) | 20.8 µM (inactive) | 21.3 µM (inactive) | 18.8 µM (inactive) | 32.3 µM (inactive) | 54.8 µM (inactive) | 30 µM (inactive) |  |
| CCC1(O)CC(OC2CC(N(C)C)C(OC3CC(O)C(OC4OC(C)C(=O)C=C4N)C(C)O3)C(C)O2)c2c(cc3c(c2O)C(=O)c2c(O)cccc2C3=O)C1C(=O)OC (configuration not stated) | 0.0015 µM (active) | 0.0272 µM (active) | 0.0153 µM (active) | 0.01 µM (active) | 0.158 µM (active) | 0.0355 µM (active) | 0.0224 µM (active) | 0.0206 µM (active) | 0.0508 µM (active) | 0.00385 µM (active) | < 0.001 µM (active) | 0.0292 µM (active) | 0.0211 µM (active) | 0.00889 µM (active) | 0.0746 µM (active) | 0.0177 µM (active) | < 0.001 µM (active) |  | 0.00272 µM (active) | 0.046 µM (active) |
| O=C(CCN1CCOCC1)Nc1ccc2sc3ccccc3c(=O)c2n1 | > 10 µM (inactive) | 53.5 µM (inactive) | 33.9 µM (inactive) | 61.1 µM (inactive) | 35 µM (inactive) | 13.2 µM (inactive) | 58.2 µM (inactive) | 35.5 µM (inactive) | 20.7 µM (inactive) | 42.9 µM (inactive) | 27.4 µM (inactive) | 20.6 µM (inactive) | 62.2 µM (inactive) | > 100 µM (inactive) | 45.3 µM (inactive) | > 100 µM (inactive) | 23 µM (inactive) |  | 38.9 µM (inactive) | 19.6 µM (inactive) |
| CCOC(=O)c1nc2ccccc2nc1Nc1cc(OC)c(OC)c(OC)c1 | > 100 µM (inactive) | > 100 µM (inactive) | > 100 µM (inactive) | > 100 µM (inactive) | > 100 µM (inactive) | > 100 µM (inactive) | > 100 µM (inactive) | > 100 µM (inactive) | > 100 µM (inactive) | > 100 µM (inactive) |  | > 100 µM (inactive) |  | > 100 µM (inactive) | > 100 µM (inactive) | > 100 µM (inactive) | > 100 µM (inactive) |  | > 100 µM (inactive) |  |
